In the data set the test system is Corynebacterium glutamicum. The data set can be described thus: Shake flask growth (OD600) with supplementation of toxic substances. The format is cell-based, Corynebacterium glutamicum DSM 20300 (=ATCC 13032). The source says:
Several strains commonly used industrial biotechnology were investigated regarding their natural tolerance towards oAB and to organic solvents in question for later product extraction (e.g. 1-dodecanol or octanol). Furthermore, the influence of the used pH value was investigated. It was known from previous experiments that at least for E. coli the toxicity of aromatic compounds depends strongly on the pH value, probably because protonated acids can much more efficiently penetrate the cell membrane and accordingly their toxicity rises severely. The extraction of oAB in an organic phase is supposed to work best at low pH values, close to the isoelectric point of oAB. The most relevant host strains considered were: Escherichia coli K12, Corynebacterium glutamicum DSM 20300 (=ATCC 13032), Pseudomonas putida KT2440, Bacillus subtilis subsp. 168, Saccharomyces cerevisiae DSM 70449, and Pichia pastoris X33 (DSM 70382).
To investigate the chosen strains towards the mentioned characteristics shake flasks and small scale fermentation experiments were performed and the organisms were supplemented with the toxic substances (aminobenzoates, solvents) at differed concentrations, different pH values, and the behaviour of the strains was studied.
The organisms (commercially obtained from ordered from the DSMZ, German collection of Microorganisms and cell cultures, Braunschweig) were firstly cultivated in shake flasks and in each of them in suiting, published standard minimal medium in order to characterize their growth under standard cultivation conditions (C. glutamicum: Preculture: BHI medium (37 g/L; Brain-Heart-Infusion; Becton Dickenson and Company, Heidelberg); Main culture pH 7: CGXII-MOPS medium (42 g/L MOPS buffer, 20 g/L (NH4)2SO4, 5 g/L urea (Fisher Scientific, Schwerte), 1 g/L KH2PO4, 1 g/L K2HPO4, 0.25 g/L MgSO4.7H2O (Merck, Darmstadt), 0.01 g/L CaCl2, and 10 g/L glucose (autoclaved separately). The pH was adjusted to 7 with 5 mol/L sodium hydroxide solution. […]

On to `Nc1ccccc1C(=O)O` [oAB, 2-aminobenzoic acid], for which the “growth (OD600)” value (3 g/L oAB, pH 7 (MOPS), 100-mL shake flask, 25 h) is “not inhibited”. Moreover, the growth inhibition entry (5 g/L, pH 5 and pH 7, shake flask) is reported as “No growth inhibition”. Further, where the note is “Corynebacterium glutamicum ATCC13032”, the tolerance for o-aminobenzoate entry is reported as “high tolerance”.

Source of the values: patent US10731187B2, “Recombinant strain producing O-aminobenzoate and fermentative production of aniline from renewable resources via 2-aminobenzoic acid” (Covestro Deutschland AG, priority 2014, dated 2020).
